pIC50: −log10 of the molar value. Converted amounts (≈) assume the structure as drawn. The source made the active and inactive calls. The rule behind the calls is not given here.
Columns and labels:
in vitro = conditions: PAMPA
Description: Permeability of the compound at 500 uM incubated for 16 hrs by PAMPA

physchem [1] = conditions: simulated gi fluid
Description: Solubility of compound in fed state simulated intestinal fluid by shake flask method

in vivo [2] = conditions: Sprague-Dawley, rat, po, 100 mg/kg
in vivo [3] = conditions: Sprague-Dawley, rat, po, 10 mg/kg
Blood = assay: tissue or blood; type: functional, tissue-based; conditions: Homo sapiens
physchem [4] = conditions: buffer, pH 6.8
Description: Equilibrium solubility of compound in buffer at pH 6.8 incubated over night under shaking condition by LC-MS/MS analysis

Rattus norvegicus [5] = organism: Rattus norvegicus; conditions: dose 20.0 mg/kg, time 2.0 hrs
in vivo [6] = conditions: Sprague-Dawley, rat, po, 300 mg/kg
Rattus norvegicus [7] = organism: Rattus norvegicus; conditions: dose 10-20 mg/kg, time 2.0 hrs
in vivo [8] = conditions: Sprague-Dawley, rat, po, 300 mg/kg; remark: listed apart in the source
in vivo [9] = conditions: Sprague-Dawley, rat, iv, 1 mg/kg
physchem [10] = conditions: buffer, pH 6.8; remark: listed apart in the source
Description: Solubility of compound at pH 6.8 by shake flask method

physchem [11] = conditions: simulated gi fluid, pH 1
Description: Solubility of compound in stimulated gastric fluid at pH 1 using crystalline form of sample by shake flask method

in vivo [12] = conditions: Sprague-Dawley, rat, po, 100 mg/kg; remark: listed apart in the source
[13] = molecular target: 3',5'-cyclic-AMP phosphodiesterase 4D (Homo sapiens, UniProt Q08499)
Sequence of 3',5'-cyclic-AMP phosphodiesterase 4D (Q08499 whole entry): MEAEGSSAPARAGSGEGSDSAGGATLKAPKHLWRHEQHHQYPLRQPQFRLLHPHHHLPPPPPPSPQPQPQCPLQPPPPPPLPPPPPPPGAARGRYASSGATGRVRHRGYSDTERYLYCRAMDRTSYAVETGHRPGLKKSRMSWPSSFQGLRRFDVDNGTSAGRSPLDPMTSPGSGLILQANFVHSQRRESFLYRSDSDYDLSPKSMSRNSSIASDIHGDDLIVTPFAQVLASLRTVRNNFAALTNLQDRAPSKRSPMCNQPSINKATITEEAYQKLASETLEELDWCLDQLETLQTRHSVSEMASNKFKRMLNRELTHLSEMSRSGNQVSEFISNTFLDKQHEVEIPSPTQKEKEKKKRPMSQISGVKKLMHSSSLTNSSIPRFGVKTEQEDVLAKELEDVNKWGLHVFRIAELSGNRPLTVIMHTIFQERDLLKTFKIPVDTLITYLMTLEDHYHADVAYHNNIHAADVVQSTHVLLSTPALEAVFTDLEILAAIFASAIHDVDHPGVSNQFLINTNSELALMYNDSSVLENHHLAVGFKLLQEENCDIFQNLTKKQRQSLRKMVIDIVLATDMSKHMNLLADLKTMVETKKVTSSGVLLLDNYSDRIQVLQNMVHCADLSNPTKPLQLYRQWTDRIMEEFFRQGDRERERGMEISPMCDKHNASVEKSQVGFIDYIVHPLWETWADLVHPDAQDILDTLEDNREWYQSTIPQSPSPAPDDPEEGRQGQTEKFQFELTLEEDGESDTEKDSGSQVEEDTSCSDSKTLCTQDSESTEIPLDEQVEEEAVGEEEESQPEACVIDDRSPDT
Description: Binding affinity to PDE4d (unknown origin)

in vivo [14] = conditions: Sprague-Dawley, rat, po, 300 mg/kg; remark: listed apart in the source
in vivo [15] = conditions: Sprague-Dawley, rat, po, 100 mg/kg; remark: listed apart in the source
in vivo [16] = conditions: Sprague-Dawley, rat, po, 10 mg/kg; remark: listed apart in the source
in vivo [17] = conditions: Sprague-Dawley, rat, po, 10 mg/kg; remark: listed apart in the source
in vivo [18] = conditions: Sprague-Dawley, rat, iv, 1 mg/kg; remark: listed apart in the source
[19] = molecular target: T1, Phosphatidylinositol 4,5-bisphosphate 3-kinase catalytic subunit beta isoform (Homo sapiens, UniProt P42338)
T1 sequence (P42338 whole entry, canonical isoform): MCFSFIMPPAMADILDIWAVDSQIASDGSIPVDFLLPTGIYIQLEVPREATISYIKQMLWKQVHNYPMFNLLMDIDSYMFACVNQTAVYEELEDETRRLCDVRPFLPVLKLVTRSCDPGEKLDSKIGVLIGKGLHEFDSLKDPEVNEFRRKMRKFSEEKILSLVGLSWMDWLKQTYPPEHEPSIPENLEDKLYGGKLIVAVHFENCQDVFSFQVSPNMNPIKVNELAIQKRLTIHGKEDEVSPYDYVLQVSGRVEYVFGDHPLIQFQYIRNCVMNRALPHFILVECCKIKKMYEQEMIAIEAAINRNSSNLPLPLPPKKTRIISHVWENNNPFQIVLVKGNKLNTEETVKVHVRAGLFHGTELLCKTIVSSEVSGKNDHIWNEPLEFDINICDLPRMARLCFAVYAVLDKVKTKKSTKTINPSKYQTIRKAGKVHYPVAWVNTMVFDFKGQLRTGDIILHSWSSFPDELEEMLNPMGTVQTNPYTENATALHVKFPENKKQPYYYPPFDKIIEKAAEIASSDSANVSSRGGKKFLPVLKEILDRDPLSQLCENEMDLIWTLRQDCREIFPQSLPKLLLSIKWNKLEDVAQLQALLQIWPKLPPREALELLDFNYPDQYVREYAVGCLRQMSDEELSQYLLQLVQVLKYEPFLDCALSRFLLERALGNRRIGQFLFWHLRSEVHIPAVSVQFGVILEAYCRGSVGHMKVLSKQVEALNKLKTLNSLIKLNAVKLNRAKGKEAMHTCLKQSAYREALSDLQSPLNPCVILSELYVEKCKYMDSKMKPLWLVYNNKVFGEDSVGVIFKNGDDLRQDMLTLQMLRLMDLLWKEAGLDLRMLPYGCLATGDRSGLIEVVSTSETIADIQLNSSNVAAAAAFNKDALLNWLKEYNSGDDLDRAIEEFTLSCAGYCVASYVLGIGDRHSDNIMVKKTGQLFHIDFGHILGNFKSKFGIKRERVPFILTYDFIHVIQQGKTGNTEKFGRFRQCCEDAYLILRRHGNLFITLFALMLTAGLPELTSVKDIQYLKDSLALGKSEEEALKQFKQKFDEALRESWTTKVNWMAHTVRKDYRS

[20] = molecular target: T2, Phosphatidylinositol 4,5-bisphosphate 3-kinase catalytic subunit alpha isoform (Homo sapiens, UniProt P42336); type: cell-based, Fibroblast
T2 sequence (P42336 whole entry, canonical isoform): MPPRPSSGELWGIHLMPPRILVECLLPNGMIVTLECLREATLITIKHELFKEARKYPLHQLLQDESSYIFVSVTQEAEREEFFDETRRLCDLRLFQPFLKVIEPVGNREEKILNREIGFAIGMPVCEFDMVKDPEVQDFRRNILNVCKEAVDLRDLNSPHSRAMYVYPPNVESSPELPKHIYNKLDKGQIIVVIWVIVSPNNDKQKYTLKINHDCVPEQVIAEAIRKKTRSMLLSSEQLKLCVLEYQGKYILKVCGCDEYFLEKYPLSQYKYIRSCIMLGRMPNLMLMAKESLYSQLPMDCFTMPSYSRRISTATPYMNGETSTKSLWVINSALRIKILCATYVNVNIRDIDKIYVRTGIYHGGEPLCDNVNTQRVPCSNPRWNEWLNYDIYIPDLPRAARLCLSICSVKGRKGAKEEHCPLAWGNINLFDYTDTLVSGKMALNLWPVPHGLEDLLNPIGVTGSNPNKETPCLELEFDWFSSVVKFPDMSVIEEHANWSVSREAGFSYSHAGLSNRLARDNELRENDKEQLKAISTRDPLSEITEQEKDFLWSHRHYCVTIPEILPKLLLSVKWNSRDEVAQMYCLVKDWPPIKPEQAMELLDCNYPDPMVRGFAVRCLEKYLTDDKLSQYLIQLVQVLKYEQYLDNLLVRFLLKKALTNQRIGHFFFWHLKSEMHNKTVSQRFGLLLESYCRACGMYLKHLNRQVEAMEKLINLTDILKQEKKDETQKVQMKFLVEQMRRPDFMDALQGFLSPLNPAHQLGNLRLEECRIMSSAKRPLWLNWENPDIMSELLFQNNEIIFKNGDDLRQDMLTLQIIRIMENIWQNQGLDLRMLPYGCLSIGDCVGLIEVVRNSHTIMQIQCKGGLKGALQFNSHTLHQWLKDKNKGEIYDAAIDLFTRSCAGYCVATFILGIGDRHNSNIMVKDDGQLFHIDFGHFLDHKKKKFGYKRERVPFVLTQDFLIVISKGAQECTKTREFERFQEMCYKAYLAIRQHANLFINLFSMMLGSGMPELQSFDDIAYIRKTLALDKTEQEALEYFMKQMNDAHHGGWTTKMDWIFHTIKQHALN
Description: Inhibition of human PI3Kalpha expressed in rat fibroblast cells assessed as reduction in AKT phosphorylation at Ser473 residue incubated for 1 hr by AlphaScreen assay

[21] = molecular target: T1, Phosphatidylinositol 4,5-bisphosphate 3-kinase catalytic subunit beta isoform; type: cell-based, Fibroblast
Description: Inhibition of human PI3Kbeta expressed in rat fibroblast cells assessed as reduction in AKT phosphorylation at Ser473 residue incubated for 1 hr by AlphaScreen assay

[22] = molecular target: T2, Phosphatidylinositol 4,5-bisphosphate 3-kinase catalytic subunit alpha isoform
[23] = molecular target: T3, Phosphatidylinositol 4,5-bisphosphate 3-kinase catalytic subunit delta isoform (Homo sapiens, UniProt O00329); type: cell-based, Fibroblast
T3 sequence (O00329 whole entry): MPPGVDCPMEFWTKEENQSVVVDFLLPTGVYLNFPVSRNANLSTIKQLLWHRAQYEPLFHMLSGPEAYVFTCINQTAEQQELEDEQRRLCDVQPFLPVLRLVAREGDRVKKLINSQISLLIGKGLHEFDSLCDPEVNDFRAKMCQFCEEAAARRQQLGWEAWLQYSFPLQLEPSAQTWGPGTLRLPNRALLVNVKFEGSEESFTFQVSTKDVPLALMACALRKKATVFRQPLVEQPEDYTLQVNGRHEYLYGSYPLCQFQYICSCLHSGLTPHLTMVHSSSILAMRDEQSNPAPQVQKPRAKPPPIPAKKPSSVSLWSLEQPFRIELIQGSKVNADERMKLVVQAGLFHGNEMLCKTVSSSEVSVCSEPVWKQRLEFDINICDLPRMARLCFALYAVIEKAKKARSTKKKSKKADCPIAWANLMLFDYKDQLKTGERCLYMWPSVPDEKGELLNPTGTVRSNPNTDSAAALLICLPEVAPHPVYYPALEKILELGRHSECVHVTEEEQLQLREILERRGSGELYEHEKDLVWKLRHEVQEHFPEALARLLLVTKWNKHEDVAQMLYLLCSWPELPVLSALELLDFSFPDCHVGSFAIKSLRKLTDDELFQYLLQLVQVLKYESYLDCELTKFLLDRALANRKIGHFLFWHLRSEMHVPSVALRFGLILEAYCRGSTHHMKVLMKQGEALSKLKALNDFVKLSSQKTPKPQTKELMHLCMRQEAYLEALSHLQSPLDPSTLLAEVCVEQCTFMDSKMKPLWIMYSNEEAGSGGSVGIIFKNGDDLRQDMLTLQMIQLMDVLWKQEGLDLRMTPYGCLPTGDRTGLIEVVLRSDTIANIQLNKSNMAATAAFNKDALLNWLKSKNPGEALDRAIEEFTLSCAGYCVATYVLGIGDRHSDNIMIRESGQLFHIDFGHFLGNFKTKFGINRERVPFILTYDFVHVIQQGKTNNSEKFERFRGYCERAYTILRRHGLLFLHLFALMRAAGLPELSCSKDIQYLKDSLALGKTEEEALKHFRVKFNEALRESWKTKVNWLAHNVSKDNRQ
Description: Inhibition of human PI3Kdelta expressed in rat fibroblast cells assessed as reduction in AKT phosphorylation at Ser473 residue incubated for 1 hr by AlphaScreen assay

[24] = molecular target: T3, Phosphatidylinositol 4,5-bisphosphate 3-kinase catalytic subunit delta isoform

Compound: Cc1ncc(-c2nc(-c3cc(S(=O)(=O)NCCC(C)(C)O)ccc3C)cnc2N)s1
- Fa at 16 h, 500 µM (in vitro): 35%

Compound: Cc1ncc(-c2nc(-c3cc(S(=O)(=O)NC4CCC(F)(F)CC4)ccc3C)cnc2N)s1
- Fa at 16 h, 500 µM (in vitro): 96%

Compound: Cc1ncc(-c2cc(-c3cc(S(=O)(=O)NCC(C)(C)O)ccc3C)cnc2N)o1
- solubility thermodynamic (physchem [1]): 200 µg/mL (≈ 480 µM)
- AUC(0-t) at 24 h (in vivo [2]): 128 µM·h
- AUC(0-t) at 24 h (in vivo [3]): 9.75 µM·h
- pIC50 (Blood): 6.07
- solubility thermodynamic (physchem [4]): 270 µg/mL (≈ 648 µM)
- inhibition (Rattus norvegicus [5]): Active
- AUC(0-t) at 24 h (in vivo [6]): 397 µM·h
- inhibition (Rattus norvegicus [7]): Dose-Dependent Effect
- bioavailability (in vivo [8]): 122%
- clearance (in vivo [9]): 30 mL/min/kg
- Fa at 16 h, 500 µM (in vitro): < 27%
- solubility thermodynamic (physchem [10]): 4 µg/mL (≈ 9.6 µM)
- solubility thermodynamic (physchem [11]): 532 µg/mL (≈ 1280 µM)
- bioavailability (in vivo [12]): 94%
- pIC50 [13]: 5.96
- Cmax (in vivo [14]): 25.2 µM
- Cmax (in vivo [15]): 12.2 µM
- bioavailability (in vivo [16]): 72%
- Cmax (in vivo [17]): 1.53 µM

Compound: Cc1ccc(S(=O)(=O)NCC(C)(C)O)cc1-c1cnc(N)c(-c2nn(C)nc2C)n1
- Fa at 16 h, 500 µM (in vitro): 81%

Compound: Cc1ncc(-c2nc(-c3cc(S(=O)(=O)NCCO)ccc3C)cnc2N)s1
- Fa at 16 h, 500 µM (in vitro): 35%

Compound: Cc1ccc(S(=O)(=O)N[C@H]2CC[C@H](O)CC2)cc1-c1cnc(N)c(C(=O)C2CC2)n1
- half-life (in vivo [18]): 4.6 h

Compound: Cc1ccc(S(=O)(=O)NCC(C)(C)O)cc1-c1cnc(N)c(-c2cn(C)nc2C)n1
- Fa at 16 h, 500 µM (in vitro): 24%

Compound: Cc1ccc(S(=O)(=O)NCC(C)(C)O)cc1-c1cnc(N)c(-c2cnn(C)n2)c1
- pIC50 (Blood): 6.03
- solubility thermodynamic (physchem [4]): 290 µg/mL (≈ 696 µM)
- Fa at 16 h, 500 µM (in vitro): 52%

Compound: Cc1ncc(-c2nc(-c3cc(S(=O)(=O)NCC(C)(C)O)ccc3C)cnc2N)s1
- Fa at 16 h, 500 µM (in vitro): 43%

Compound: Cc1ncc(-c2nc(-c3cc(S(=O)(=O)NCCCO)ccc3C)cnc2N)s1
- Fa at 16 h, 500 µM (in vitro): 27%

Compound: Cc1ncc(-c2cc(-c3cc(S(=O)(=O)NCC(C)(C)O)ccc3C)cnc2N)s1
- pIC50 (Blood): 5.74
- solubility thermodynamic (physchem [4]): 52 µg/mL (≈ 120 µM)
- Fa at 16 h, 500 µM (in vitro): 43%

Compound: CCn1nnc(CCNC(=O)Nc2nc(C)c(-c3ccc(S(C)(=O)=O)c(F)c3)s2)n1
- pIC50 (Blood): 5.15
- pIC50 [19]: 6.44
- pIC50 [20]: < 5.00
- pIC50 [21]: 5.63
- pIC50 [22]: 5.52
- pIC50 [23]: 5.39
- pIC50 [24]: 6.02

Compound: Cc1ccc(S(=O)(=O)NCC(C)(C)O)cc1-c1cnc(N)c(-c2cnn(C)n2)n1
- Fa at 16 h, 500 µM (in vitro): 60%

Compound: Cc1ccc(S(=O)(=O)NCC(C)(C)O)cc1-c1cnc(N)c(-c2cnn(C)c2C)c1
- Fa at 16 h, 500 µM (in vitro): < 35%

Compound: Cc1cnn(-c2cc(-c3cc(S(=O)(=O)NCC(C)(C)O)ccc3C)cnc2N)c1
- solubility thermodynamic (physchem [4]): 30 µg/mL (≈ 72.2 µM)
- Fa at 16 h, 500 µM (in vitro): 68%

Compound: Cc1ccn(-c2nc(-c3cc(S(=O)(=O)NCC(C)(C)O)ccc3C)cnc2N)n1
- Fa at 16 h, 500 µM (in vitro): 96%

Compound: Cc1nnc(-c2cc(-c3cc(S(=O)(=O)NCC(C)(C)O)ccc3C)cnc2N)o1
- Fa at 16 h, 500 µM (in vitro): 27%

Compound: Cc1noc(-c2cc(-c3cc(S(=O)(=O)NCC(C)(C)O)ccc3C)cnc2N)n1
- solubility thermodynamic (physchem [1]): 92 µg/mL (≈ 220 µM)
- AUC(0-t) at 24 h (in vivo [3]): 17.1 µM·h
- solubility thermodynamic (physchem [4]): 160 µg/mL (≈ 383 µM)
- clearance (in vivo [9]): 15 mL/min/kg
- Fa at 16 h, 500 µM (in vitro): 81%
- solubility thermodynamic (physchem [10]): 16 µg/mL (≈ 38.3 µM)
- solubility thermodynamic (physchem [11]): 1020 µg/mL (≈ 2460 µM)
- bioavailability (in vivo [16]): 66%
- Cmax (in vivo [17]): 3.29 µM

Compound: Cc1ccc(S(=O)(=O)NCC(C)(C)O)cc1-c1cnc(N)c(-n2cncn2)c1
- Fa at 16 h, 500 µM (in vitro): < 27%

Compound: Cc1ccc(S(=O)(=O)NCC(C)(C)O)cc1-c1cnc(N)c(-n2cncn2)n1
- Fa at 16 h, 500 µM (in vitro): 27%

Compound: Cc1ncc(-c2nc(-c3cc(S(=O)(=O)N[C@H]4CC[C@H](O)CC4)ccc3C)cnc2N)s1
- Fa at 16 h, 500 µM (in vitro): < 21%

Compound: Cc1cc(-c2nc(-c3cc(S(=O)(=O)NCC(C)(C)O)ccc3C)cnc2N)on1
- Fa at 16 h, 500 µM (in vitro): 43%

From ChEMBL document CHEMBL4831512 (J Med Chem, 2021)
